Data published in ChEMBL document CHEMBL4342494 (ACS Med Chem Lett, 2020).

Key:
D(2) dopamine receptor [1] = target: T1, D(2) dopamine receptor (Homo sapiens, UniProt P14416)
D(2) dopamine receptor [2] = target: T1, D(2) dopamine receptor; assay: Agonist activity at D2 long receptor (unknown origin) transfected in human HEK293T cells assessed as increase in cAMP accumulation incubated for 2 hrs by cAMP Glo-sensor assay; assay type: functional, cell-based
D(1A) dopamine receptor [3] = target: T2, D(1A) dopamine receptor (Homo sapiens, UniProt P21728); assay: Agonist activity at C-terminal RLuc8-fused D1R (unknown origin) transfected in human HEK293T cells co-expressing N-terminal Venus-tagged beta-arrestin2 assessed as increase in beta-arrestin2 recruitment measured after 5 mins in presence of coelenterazine H by BRET assay; assay type: cell-based
T2 sequence (P21728 whole entry, the tested form may be a part): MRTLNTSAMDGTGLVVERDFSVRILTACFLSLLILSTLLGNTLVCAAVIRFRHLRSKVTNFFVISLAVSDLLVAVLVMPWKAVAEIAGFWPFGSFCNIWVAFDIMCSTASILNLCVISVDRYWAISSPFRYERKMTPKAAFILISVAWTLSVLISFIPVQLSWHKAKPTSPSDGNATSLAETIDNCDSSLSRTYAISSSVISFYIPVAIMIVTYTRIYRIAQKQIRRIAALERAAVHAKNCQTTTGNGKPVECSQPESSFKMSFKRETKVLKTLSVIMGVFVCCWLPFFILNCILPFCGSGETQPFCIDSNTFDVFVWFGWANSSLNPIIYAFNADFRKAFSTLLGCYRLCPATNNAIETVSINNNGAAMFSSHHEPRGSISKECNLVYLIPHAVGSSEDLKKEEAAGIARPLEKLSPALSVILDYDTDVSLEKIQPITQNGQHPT

D(1A) dopamine receptor [4] = target: T2, D(1A) dopamine receptor; assay: Agonist activity at D1R (unknown origin) transfected in human HEK293T cells assessed as increase in cAMP accumulation incubated for 2 hrs by cAMP Glo-sensor assay; assay type: functional, cell-based
D(2) dopamine receptor [5] = target: T1, D(2) dopamine receptor; remark: listed apart in the source
D(1A) dopamine receptor [6] = target: T2, D(1A) dopamine receptor

T1 sequence (P14416 whole entry): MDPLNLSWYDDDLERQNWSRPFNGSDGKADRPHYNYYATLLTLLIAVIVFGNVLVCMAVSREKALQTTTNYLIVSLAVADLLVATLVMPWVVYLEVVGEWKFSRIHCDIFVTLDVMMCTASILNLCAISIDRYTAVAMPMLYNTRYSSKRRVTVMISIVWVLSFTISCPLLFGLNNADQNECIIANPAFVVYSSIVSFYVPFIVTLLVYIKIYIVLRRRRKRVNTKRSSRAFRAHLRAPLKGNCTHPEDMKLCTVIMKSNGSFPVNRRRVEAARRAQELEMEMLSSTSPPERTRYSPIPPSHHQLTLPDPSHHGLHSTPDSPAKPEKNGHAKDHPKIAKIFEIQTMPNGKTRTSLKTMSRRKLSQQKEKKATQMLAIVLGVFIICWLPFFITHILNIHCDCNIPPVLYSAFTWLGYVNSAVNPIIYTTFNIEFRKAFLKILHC

| EC50 (D(1A) dopamine receptor [4]; read-out: pEC50 (converted)) | SMILES | EC50 (D(2) dopamine receptor [1]) | EC50 (D(2) dopamine receptor [2]; read-out: EC50) | EC50 (D(2) dopamine receptor [2]; read-out: pEC50 (converted)) | EC50 (D(1A) dopamine receptor [3]; read-out: EC50) | EC50 (D(1A) dopamine receptor [4]; read-out: EC50) | EC50 (D(1A) dopamine receptor [3]; read-out: pEC50 (converted)) | log(Tau/KA) (D(2) dopamine receptor [5]) | G-protein bias factor (D(1A) dopamine receptor [6]) |
| --- | --- | --- | --- | --- | --- | --- | --- | --- | --- |
|  | CC(=O)Oc1c(Br)cc2c(c1OC(C)=O)-c1cccc3c1[C@@H](C2)N(C)CC3 | 1.41 µM | > 10 µM | > 10 µM |  |  |  |  |  |
| 0.661 µM | COc1cccc(-c2cc3c(c(OC(C)=O)c2OC(C)=O)-c2cccc4c2[C@@H](C3)N(C)CC4)c1 |  | > 10 µM | > 10 µM | 0.0414 µM | 0.669 µM |  |  |  |
|  | CC(=O)Oc1c(C(C)C)cc2c(c1OC(C)=O)-c1cccc3c1[C@@H](C2)N(C)CC3 | > 10 µM | > 10 µM | > 10 µM | > 10 µM | 0.951 µM | > 10 µM |  |  |
|  | CCc1cc2c(c(OC(C)=O)c1OC(C)=O)-c1cccc3c1[C@@H](C2)N(C)CC3 |  |  |  | 0.00038 µM | 1.55 µM |  |  |  |
|  | COCOc1ccc2c(c1OCOC)-c1cccc3c1[C@@H](C2)N(C)CC3 |  |  |  | 0.00845 µM | > 10 µM |  |  |  |
|  | CCCN1CCc2cccc3c2[C@H]1Cc1ccc(O)c(O)c1-3 |  |  |  |  |  |  | 0.85 | 19.3 |
|  | CC(=O)Oc1c(Cl)cc2c(c1OC(C)=O)-c1cccc3c1[C@@H](C2)N(C)CC3 | 0.604 µM | > 10 µM | > 10 µM |  |  |  |  |  |
|  | CN1CCc2cccc3c2[C@H]1Cc1ccc(O)c(O)c1-3 |  |  |  |  |  |  | 2.16 | 41.5 |
|  | CN1CCc2cccc3c2[C@H]1Cc1ccc2c(c1-3)OCO2 | 0.102 µM | > 10 µM | > 10 µM | > 10 µM | 0.112 µM | > 10 µM |  |  |
